Source: US20030109523A1, “Bicyclic antagonists selective for the alphavbeta3 integrin” (Wyeth, priority 1999, published 2003)
Structures can show the parent of a compound that is named as a salt. Values belong to the compound of their own block, whether it stands above or below them.

Columns and labels:
αIIbβ3 integrin = biological target: T1, αIIbβ3 integrin (Homo sapiens, UniProt P05106+P08514); assay: ADP-Induced Platelet Aggregation; format: cell-based; conditions: Table VII; for IC50: ADP 20 uM, human platelets, read-out: Platelet Aggregation αIIbβ3 IC50
T1 construct: Human Platelets: Platelet-enriched plasma was obtained commercially from a donor pool; from tissue; host or cells: human platelet-rich plasma from a commercial donor pool
Description: Measurement of the Effect of Compounds on ADP-Induced Platelet Aggregation
Measuring the effect of compounds on ADP-induced platelet aggregation mediated by a fibrinogen-αIIbβ3 integrin interaction.
Human Platelets: Platelet-enriched plasma was obtained commercially from a donor pool. The plasma was tested prior to shipment and found to be negative for HIV, HCV and Hepatitis B. Platelet-rich plasma (PRP) was obtained by diluting plasma to an approximate final concentration of 3×10(6) platelets per mL in platelet poor plasma (PPP). PPP was the supernatant of a lowspeed centrifugation of plasma.
Adenosine diphosphate (ADP): ADP was obtained commercially and diluted to 1 mM (stock solution) in distilled, deionized water (ddH2O).
Incubation: PRP and PPP were prewarmed in a water bath at 37° C. […] PRP plus sample compound in a final volume of 500 uL was added to a pre-warmed cuvette in a ChronoLog aggregometer. A control containing PRP and 5 uL of vehicle was treated similarly to the test cuvette; final vehicle concentration was 1%. The two cuvettes were incubated with stirring (1000 rpm) at 37° C. for 5 minutes. Five hundred microliters of PPP was used as a reference (100% aggregation).
Aggregation: To begin the test, ADP was added yielding a final concentration of 20 uM to both samples (plus and minus sample compound). Light transmittance was monitored continuously and compared to the reference cuvette. After five minutes, the test was terminated and the slope and maximal amplitude of the resulting aggregation plot was calculated by the aggregometer.
The percent of maximal aggregation is the ratio of the maximal aggregations of the sample cuvette to the control multiplied by 100 (% Max) and reported as the mean+−standard deviation.

αVβ3 integrin = biological target: T2, αVβ3 integrin (Homo sapiens, UniProt P05106+P06756); assay: Osteopontin-αVβ3 Cell Attachment Test Procedure; format: cell-based; conditions: for IC50: attachment of cells to osteopontin, read-out: (αVβ3) IC50 CELL ATTACHMENT
T2 construct: αVβ3-expressing cell lines are maintained by standard tissue culture techniques; endogenous in cells; host or cells: αVβ3-expressing cell lines
Description: Osteopontin-αVβ3 Cell Attachment Test Procedure
Measuring the effect of compounds on the RGD-dependent attachment of cells to osteopontin mediated by the αVβ3 integrin.
Following incubation the wells were aspirated and washed once with D-PBS; plates can either be used immediately or stored for up to 1 week at 4° C. Prior to assay, the wells were blocked with 1% bovine serum albumin (BSA) in cell suspension media for 1 hour at 37° C. Following the blocking period, wells were aspirated and washed once with D-PBS.
αVβ3-expressing cell lines are maintained by standard tissue culture techniques. […] The cells were pelleted by low-speed centrifugation and washed three times with 0.5 mg/mL trypsin inhibitor in D-PBS (Sigma). The final cell pellet was resuspended in cell suspension media at a concentration of 10^6 cells/mL.
Incubation: 100 μL of diluted test compound was added to osteopontin-coated wells (in triplicate) followed by 100 μL of cell suspension; background cell attachment was determined in uncoated wells. The plate was incubated at 25° C. in a humidified air atmosphere for 1.5 hours. Following the incubation period, the wells were gently aspirated and washed once with D-PBS.
Cell Number Detection: The number of cells attached was determined by an MTT dye conversion assay (Promega) according to the manufacturer's instructions. Briefly, MTT dye was diluted in cell suspension media (15:85) and 100 μL was added to each well. […] The assay plates were covered and incubated at 37° C. in a humidified air atmosphere overnight.
The individual well optical density was expressed as a percentage of the maximal attachment (% Max) wells minus background attachment, and reported as the mean ±standard deviation.

osteoclasts = assay: Osteoclast Bone Pitting; format: cell-based, rat
Description: Osteoclast Bone Pitting The test procedure was conducted as described by R. J. Murrills and D. W. […] At this pH the adherent osteoclasts excavate an adequate number of resorption pits for assay purposes. Slices were fixed in 2.5% glutaraldehyde and osteoclasts counted following tartrate-resistant acid phosphatase staining. […] All cells were stripped from the slice by sonication on 0.25M NH4OH and the resorption pits formed by the osteoclasts during the experiment stained with toluidine blue. Resorption pits were quantified by manually counting. The experiments were conducted according to a block design with osteoclasts from each animal exposed to each treatment. Three replicate slices were used per treatment per animal, such that a total of 96 slices were examined for an experiment involving four animals and eight treatments (including control). Several parameters were recorded on a “per slice” basis: number of pits, number of osteoclasts, number of pits per osteoclast, number of fibroblast-like bone cells. SAS or JMP statistical software were used for statistical analysis. […] IC50s were calculated using dose-response curves.

[1] = biological target: T3, Vitronectin Receptor (αVβ3) (Homo sapiens, UniProt P05106+P06756); assay: Vitronectin Receptor (αVβ3) Binding Test Procedure; conditions: for IC50: read-out: (αVβ3) IC50 RECEPTOR BINDING
T3 construct: expressed in transfected cells; host or cells: 512P5 cells (plasma membrane preparation)

[2] = @200 μM, percent of maximal aggregation
[3] = % of maximal attachment, read-out: (αVβ3) CELL ATTACHMENT, % @ concentration
[4] = @ 100 μM, % of maximal attachment, read-out: (αVβ3) CELL ATTACHMENT, % @ concentration
[5] = @ 30 μM, % Max = percentage of the specific binding, read-out: (αVβ3) RECEPTOR BINDING, % @ concentration

T1 sequence (P08514 32-887 limits assumed): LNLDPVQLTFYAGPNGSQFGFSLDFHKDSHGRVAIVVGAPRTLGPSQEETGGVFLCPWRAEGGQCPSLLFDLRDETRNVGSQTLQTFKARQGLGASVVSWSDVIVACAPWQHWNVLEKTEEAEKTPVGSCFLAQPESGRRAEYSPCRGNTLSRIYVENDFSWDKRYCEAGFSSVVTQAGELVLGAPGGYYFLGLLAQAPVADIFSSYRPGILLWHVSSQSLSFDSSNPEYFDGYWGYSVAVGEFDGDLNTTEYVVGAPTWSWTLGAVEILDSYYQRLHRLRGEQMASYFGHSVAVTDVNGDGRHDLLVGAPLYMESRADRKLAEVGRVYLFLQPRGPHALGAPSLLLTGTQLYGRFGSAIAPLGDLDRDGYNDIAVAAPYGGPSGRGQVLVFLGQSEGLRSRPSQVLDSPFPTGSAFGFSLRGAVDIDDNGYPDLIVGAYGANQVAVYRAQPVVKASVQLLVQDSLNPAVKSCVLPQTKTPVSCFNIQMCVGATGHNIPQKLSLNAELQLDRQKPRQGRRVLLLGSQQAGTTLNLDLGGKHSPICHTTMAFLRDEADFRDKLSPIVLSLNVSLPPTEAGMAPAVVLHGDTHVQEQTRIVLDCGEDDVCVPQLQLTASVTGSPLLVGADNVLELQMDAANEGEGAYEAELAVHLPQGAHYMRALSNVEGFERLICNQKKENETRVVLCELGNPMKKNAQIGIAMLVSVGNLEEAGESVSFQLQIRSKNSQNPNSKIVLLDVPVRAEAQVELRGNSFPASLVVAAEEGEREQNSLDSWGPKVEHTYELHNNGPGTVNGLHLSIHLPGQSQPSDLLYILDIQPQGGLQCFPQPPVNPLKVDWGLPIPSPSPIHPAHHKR
T1 sequence (P08514 891-1039 partner limits assumed): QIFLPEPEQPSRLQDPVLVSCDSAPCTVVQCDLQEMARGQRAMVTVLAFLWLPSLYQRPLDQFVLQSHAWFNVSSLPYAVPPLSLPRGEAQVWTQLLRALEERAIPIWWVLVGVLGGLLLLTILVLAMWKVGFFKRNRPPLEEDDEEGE
T1 sequence (P05106 27-788): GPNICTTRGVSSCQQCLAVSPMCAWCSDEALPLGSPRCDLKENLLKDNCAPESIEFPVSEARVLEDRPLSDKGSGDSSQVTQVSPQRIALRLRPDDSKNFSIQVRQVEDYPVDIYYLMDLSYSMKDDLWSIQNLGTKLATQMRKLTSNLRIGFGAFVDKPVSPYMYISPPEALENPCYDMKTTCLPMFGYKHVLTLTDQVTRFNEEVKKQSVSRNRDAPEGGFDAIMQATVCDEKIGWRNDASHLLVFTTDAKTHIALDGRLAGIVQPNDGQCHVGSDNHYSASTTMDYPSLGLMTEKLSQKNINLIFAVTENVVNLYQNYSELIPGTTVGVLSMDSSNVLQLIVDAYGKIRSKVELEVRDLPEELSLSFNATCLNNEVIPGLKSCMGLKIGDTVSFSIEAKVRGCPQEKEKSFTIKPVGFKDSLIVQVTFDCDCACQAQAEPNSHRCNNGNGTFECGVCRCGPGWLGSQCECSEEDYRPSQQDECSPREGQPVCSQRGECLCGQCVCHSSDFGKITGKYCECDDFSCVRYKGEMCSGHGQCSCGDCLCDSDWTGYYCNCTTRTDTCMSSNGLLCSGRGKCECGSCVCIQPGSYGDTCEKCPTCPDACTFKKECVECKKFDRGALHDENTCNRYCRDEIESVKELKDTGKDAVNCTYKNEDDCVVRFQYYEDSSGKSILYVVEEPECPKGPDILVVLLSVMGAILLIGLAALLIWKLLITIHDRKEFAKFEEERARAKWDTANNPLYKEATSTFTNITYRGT
T3 sequence (P06756 31-889 limits assumed): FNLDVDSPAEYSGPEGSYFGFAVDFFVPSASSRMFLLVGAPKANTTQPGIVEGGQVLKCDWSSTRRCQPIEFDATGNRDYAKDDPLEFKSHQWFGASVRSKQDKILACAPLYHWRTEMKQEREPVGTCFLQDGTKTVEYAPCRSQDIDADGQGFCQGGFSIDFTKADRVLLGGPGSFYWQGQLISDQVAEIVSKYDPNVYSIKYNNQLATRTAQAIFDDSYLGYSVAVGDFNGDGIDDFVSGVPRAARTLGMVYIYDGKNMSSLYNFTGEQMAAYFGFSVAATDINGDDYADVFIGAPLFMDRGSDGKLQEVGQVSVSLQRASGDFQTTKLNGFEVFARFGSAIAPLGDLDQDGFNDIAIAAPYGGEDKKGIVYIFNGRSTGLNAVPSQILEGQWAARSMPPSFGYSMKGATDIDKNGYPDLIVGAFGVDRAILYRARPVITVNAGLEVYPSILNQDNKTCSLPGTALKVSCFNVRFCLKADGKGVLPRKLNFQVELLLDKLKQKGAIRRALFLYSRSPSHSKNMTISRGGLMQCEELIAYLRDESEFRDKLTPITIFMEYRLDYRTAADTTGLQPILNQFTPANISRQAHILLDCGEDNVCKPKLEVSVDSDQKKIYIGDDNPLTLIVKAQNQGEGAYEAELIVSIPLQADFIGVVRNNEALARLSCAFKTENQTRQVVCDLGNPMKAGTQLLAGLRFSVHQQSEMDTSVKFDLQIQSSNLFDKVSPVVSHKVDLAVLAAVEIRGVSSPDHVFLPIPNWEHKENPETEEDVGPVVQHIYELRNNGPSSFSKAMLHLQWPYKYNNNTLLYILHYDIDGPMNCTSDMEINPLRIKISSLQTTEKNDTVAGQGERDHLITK
T3 sequence (P06756 891-1048 partner limits assumed): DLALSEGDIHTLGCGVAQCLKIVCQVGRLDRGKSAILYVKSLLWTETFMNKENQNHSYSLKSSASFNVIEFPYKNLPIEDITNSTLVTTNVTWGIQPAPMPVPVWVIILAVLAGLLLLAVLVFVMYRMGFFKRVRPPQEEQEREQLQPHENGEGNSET
T3 sequence (P05106 27-788): as the sequence (P05106 27-788) above
T2 sequence (P06756 31-889 limits assumed): as the sequence (P06756 31-889 limits assumed) above
T2 sequence (P06756 891-1048 partner limits assumed): as the sequence (P06756 891-1048 partner limits assumed) above
T2 sequence (P05106 27-788): as the sequence (P05106 27-788) above

melting point: 194 to 196 °C
Structure (SMILES): NCCCOc1ccc2c(c1)NC(=O)C(CC(=O)O)C2 (centres unmarked) (as salt: salt) [Example 205, [7-(3-Amino-propoxy)-2-oxo-1,2,3,4-tetrahydro-quinolin-3-yl]-acetic Acid]

melting point: 119 to 122 °C
Structure (SMILES): N=C(N)NCCOc1ccc2c(c1)CC(CCC(=O)O)C(=O)N2 (centres unmarked) (as salt: salt) [Example 222, 3-[6-(2-Guanidino-ethoxy)-2-oxo-1,2,3,4-tetrahydro-quinolin-3-yl]-propionic Acid]

melting point: 219 to 220 °C
Structure (SMILES): N=C(N)NCCOc1ccc2cc(CC(=O)O)c(=O)[nH]c2c1 (as salt: trifluoroacetate) [Example 185, [7-(2-Guanidino-ethoxy)-2-oxo-1,2-dihydro-quinolin-3-yl]-acetic Acid]

remaining activity at 200 µM (αIIbβ3 integrin; [2]): 94% | IC50 (αVβ3 integrin): 145 µM | remaining activity at 100 µM ([1]; @ 100 μM, % Max = percentage of the specific binding, read-out: (αVβ3) RECEPTOR BINDING, % @ concentration): 31.4%
Structure (SMILES): N=C(N)NCCNC(=O)c1ccc2c(c1)NC(=O)C(CC(=O)O)C2 (centres unmarked) [Example 200, [7-(2-Guanidino-ethylcarbamoyl)-2-oxo-1,2,3,4-tetrahydro-quinolin-3-yl]-acetic Acid Hydrochloride]
inhibition at 254 µM (osteoclasts; Rattus norvegicus, Osteoclast, @ 254 μM): 20%

remaining activity at 200 µM (αIIbβ3 integrin; [2]): 85% | IC50 (αVβ3 integrin): 25.4 µM | IC50 [1]: 5.8 µM
Structure (SMILES): N=C(N)NCCCNC(=O)c1ccc2c(c1)NC(=O)C(CC(=O)O)C2 (centres unmarked) [Example 201, [7-(3-Guanidino-propylcarbamoyl)-2-oxo-1,2,3,4-tetrahydro-quinolin-3-yl]-acetic Acid Hydrochloride]
inhibition at 256 µM (osteoclasts; Rattus norvegicus, Osteoclast, @ 256 μM): 45%

melting point: 205 to 208 °C
Structure (SMILES): NCCOc1ccc2c(c1)NC(=O)C(CC(=O)O)C2 (centres unmarked) [Example 204, [7-(2-Amino-ethoxy)-2-oxo-1,2,3,4-tetrahydro-quinolin-3-yl]-acetic Acid]

remaining activity at 200 µM (αIIbβ3 integrin; [2]): 58% | IC50 (αVβ3 integrin): 0.479 µM | IC50 [1]: 0.42 µM
Structure (SMILES): O=C(O)CC1CCc2cc(OCCCNC3=NCCCN3)ccc2C1 (centres unmarked) [Example 214, {6-[3-(1,4,5,6-Tetrahydro-pyrimidin-2-ylamino)-propoxy]-1,2,3,4-tetrahydro-naphthalen-2-yl}-acetic Acid]
inhibition at 19 µM (osteoclasts; Rattus norvegicus, Osteoclast, @ 19 μM): 19%

IC50 (αIIbβ3 integrin): 151 µM | IC50 (αVβ3 integrin): 37.4 µM | IC50 [1]: 2 µM
Structure (SMILES): COC(=O)CC1CCc2cc(OCCCNC3=NCCCN3)ccc2C1 (centres unmarked) [Example 215]
inhibition at 200 µM (osteoclasts; Rattus norvegicus, Osteoclast, @ 200 μM): 90%

Percent of Maximal (αIIbβ3 integrin; [2]): 83.7@200% | (αVβ3) CELL ATTACHMENT, % @ concentration (αVβ3 integrin; @ 100 μM, % of maximal attachment): 88%@ 100 | (αVβ3) RECEPTOR BINDING, % @ concentration ([1]; @ 30 μM, % Max = percentage of the specific binding): 57%@ 30
Structure (SMILES): N=C(N)NCCCOc1ccc2c(c1)CC(CC(=O)O)C(=O)N2 (centres unmarked) [Example 228, [6-(3-Guanidino-propoxy)-2-oxo-1,2,3 4-tetrahydro-quinolin-3-yl]-acetic Acid]
BONE PITTING INHIBITION (osteoclasts; @ 230 μM): 7%@ 230

Continued, compound first:

Structure (SMILES): CCn1c(=O)c(CC(=O)O)cc2ccc(OCCCN)cc21.O=C(O)C(F)(F)F
melting point: 182 to 184 °C

Structure (SMILES): NCCCOc1ccc2cc(CC(=O)O)c(=O)n(Cc3ccccc3)c2c1 (as salt: salt) [Example 136, [1-Benzyl-7-(3-amino-propoxy)-2-oxo-1,2-dihydro-quinolin-3-yl]-acetic Acid]
melting point: 126 to 128 °C

Structure (SMILES): N=C(N)NCCCCOc1ccc2c(c1)CC(CC(=O)O)C(=O)N2 (centres unmarked) (as salt: salt) [Example 229, [6-(4-Guanidino-butoxy)-2-oxo-1,2,3,4-tetrahydro-quinolin-3-yl]-acetic Acid]
melting point: 170 to 173 °C

Structure (SMILES): N=C(N)NCCCCCOc1cccc2c1NC(=O)C(CC(=O)O)C2 (centres unmarked) (as salt: salt) [Example 250, [8-(5-Guanidino-pentoxy)-2-oxo-1,2,3,4-tetrahydro-quinolin-3-yl]-acetic Acid]
melting point: 126 to 131 °C

Structure (SMILES): N=C(N)NCCCOc1ccc2cc(CC(=O)O)c(=O)n(Cc3ccccc3)c2c1 [Example 155, [1-Benzyl-7-(3-guanidino-propoxy)-2-oxo-1,2-dihydro-quinolin-3-yl]-acetic Acid]
remaining activity at 200 µM (αIIbβ3 integrin; [2]): 83.7% | melting point: 132 to 134 °C

Structure (SMILES): N=C(N)NCCCOc1ccc2cc(CC(=O)O)c(=O)[nH]c2c1.O=C(O)C(F)(F)F [Example 186, [7-(3-Guanidino-propoxy)-2-oxo-1,2-dihydro-quinolin-3-yl]-acetic Acid Trifluoroacetate]
remaining activity at 20 µM (αVβ3 integrin; [3]): 113% | remaining activity at 100 µM (αVβ3 integrin; [4]): 68.9% | melting point: 195 to 198 °C

Structure (SMILES): N=C(N)NCCCCNC(=O)c1ccc2c(c1)NC(=O)C(CC(=O)O)C2 (centres unmarked) [Example 202, [7-(4-Guanidino-butylcarbamoyl)-2-oxo-1,2,3,4-tetrahydro-quinolin-3-yl]-acetic Acid Hydrochloride]
IC50 (αIIbβ3 integrin): 87 µM | inhibition at 240 µM (osteoclasts; Rattus norvegicus, Osteoclast, @ 240 μM): 37% | IC50 (αVβ3 integrin): 86 µM | remaining activity at 30 µM [1, 5]: 50%

Structure (SMILES): N=C(N)NCCCCOc1ccc2c(c1)CC(CC(=O)O)C(=O)N2 (centres unmarked) [Example 229, [6-(4-Guanidino-butoxy)-2-oxo-1,2,3,4-tetrahydro-quinolin-3-yl]-acetic Acid]
IC50 (αIIbβ3 integrin): 146 µM | inhibition at 214 µM (osteoclasts; Rattus norvegicus, Osteoclast, @ 214 μM): 2% | remaining activity at 100 µM (αVβ3 integrin; [4]): 82% | remaining activity at 30 µM [1, 5]: 100%

Structure (SMILES): N=C(N)NCCCCOc1ccc2[nH]c(=O)c(CC(=O)O)cc2c1 [Example 238, [6-(4-Guanidino-butoxy)-2-oxo-1,2-dihydro-quinolin-3-yl]-acetic Acid Trifluoroacetic Acid Salt]
remaining activity at 200 µM (αIIbβ3 integrin; [2]): 94% | inhibition at 215 µM (osteoclasts; Rattus norvegicus, Osteoclast): -20% | remaining activity at 20 µM (αVβ3 integrin; [3]): 102% | remaining activity at 100 µM (αVβ3 integrin; [4]): 97.9% | remaining activity at 30 µM [1, 5]: 100%

Structure (SMILES): N=C(N)NCCOc1ccc2cc(CCC(=O)O)c(=O)[nH]c2c1.O=[N+]([O-])O [Example 247, 3-[7-(2-Guanidino-ethoxy)-2-oxo-1,2-dihydro-quinolin-3-yl]-propionic Acid Nitric Acid Salt]
remaining activity at 200 µM (αIIbβ3 integrin; [2]): 100% | melting point: 211 °C (dec.)

Structure (SMILES): N=C(N)NCCCCCOc1cccc2c1NC(=O)C(CC(=O)O)C2 (centres unmarked) [Example 250, [8-(5-Guanidino-pentoxy)-2-oxo-1,2,3,4-tetrahydro-quinolin-3-yl]-acetic Acid]
remaining activity at 200 µM (αIIbβ3 integrin; [2]): 69% | inhibition at 215 µM (osteoclasts; Rattus norvegicus, Osteoclast): -5% | remaining activity at 10 µM (αVβ3 integrin; @ 10 μM, % of maximal attachment, read-out: (αVβ3) CELL ATTACHMENT, % @ concentration): 90% | remaining activity at 100 µM (αVβ3 integrin; [4]): 89% | remaining activity at 30 µM [1, 5]: 102%
